# Active and inactive are the calls of the source. The calls are words filed in the database; no cut-off is given here.
# How the values were obtained:
# [1] = target: T1, von Hippel-Lindau disease tumor suppressor/Ubiquitin carboxyl-terminal hydrolase 7 (Homo sapiens, UniProt Q93009+P40337); assay: PROTACT activity at USP7/VHL in human RS4;11 cells assessed as protein degradation at 10 nM measured after 6 hrs in presence of NEDD8-activating enzyme inhibitor […] by Western blot analysis; assay type: cell-based
# [2] = test system: RS4-11; assay: Induction of apoptosis in human RS4-11 cells assessed as early apoptotic cells at 100 nM measured after 72 hrs by FITC-annexin-V/PI analysis (reference value: 5.36%); assay type: functional
# [3] = test system: RS4-11; assay: Induction of apoptosis in human RS4-11 cells assessed as late apoptotic cells at 10 nM measured after 72 hrs by FITC-annexin-V/PI analysis (reference value: 3.23%); assay type: functional
# [4] = test system: RS4-11; assay: Induction of apoptosis in human RS4-11 cells assessed as viable cells at 100 nM measured after 72 hrs by FITC-annexin-V/PI analysis (reference value: 91.41%); assay type: functional; settings: read-out: Activity
# [5] = target: T1, von Hippel-Lindau disease tumor suppressor/Ubiquitin carboxyl-terminal hydrolase 7; assay: PROTACT activity at USP7/VHL in human RS4;11 cells assessed as maximal protein degradation measured after 24 hrs by Western blot analysis relative to control; assay type: cell-based
# [6] = test system: RS4-11; assay: Antitumor activity against human RS4-11 cells xenografted in NOD/SCID mouse model assessed as tumor growth inhibition at 10 mg/kg, ip daily measured after 18 days relative to control; assay type: functional; settings: RS4-11, 432 h, time 18 day, read-out: TGI
# [7] = test system: RS4-11; assay: Induction of cell cycle arrest in human RS4-11 cells assessed as assessed as total apoptotic cells at 1 nM measured after 12 hrs by flow cytometry relative to control; assay type: functional
# [8] = test system: RS4-11; assay: Induction of apoptosis in human RS4-11 cells assessed as late apoptotic cells at 1 nM measured after 72 hrs by FITC-annexin-V/PI analysis (reference value: 3.23%); assay type: functional
# [9] = target: T1, von Hippel-Lindau disease tumor suppressor/Ubiquitin carboxyl-terminal hydrolase 7; assay: PROTACT activity at USP7/VHL in human RS4;11 cells assessed as protein degradation at 10 nM measured after 2 to 4 hrs by Western blot analysis; assay type: cell-based; settings: time 2-4 hrs
# [10] = test system: RS4-11; assay: Induction of apoptosis in human RS4-11 cells assessed as late apoptotic cells at 100 nM measured after 72 hrs by FITC-annexin-V/PI analysis (reference value: 3.23%); assay type: functional
# T1 sequence (P40337 whole entry, looked up): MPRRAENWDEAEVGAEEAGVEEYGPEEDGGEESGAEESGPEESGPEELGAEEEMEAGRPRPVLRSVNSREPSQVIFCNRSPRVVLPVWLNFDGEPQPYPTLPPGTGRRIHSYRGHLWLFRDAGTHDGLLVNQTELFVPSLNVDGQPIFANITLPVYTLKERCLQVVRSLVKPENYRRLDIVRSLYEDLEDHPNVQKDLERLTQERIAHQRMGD
# T1 sequence (Q93009 whole entry, looked up): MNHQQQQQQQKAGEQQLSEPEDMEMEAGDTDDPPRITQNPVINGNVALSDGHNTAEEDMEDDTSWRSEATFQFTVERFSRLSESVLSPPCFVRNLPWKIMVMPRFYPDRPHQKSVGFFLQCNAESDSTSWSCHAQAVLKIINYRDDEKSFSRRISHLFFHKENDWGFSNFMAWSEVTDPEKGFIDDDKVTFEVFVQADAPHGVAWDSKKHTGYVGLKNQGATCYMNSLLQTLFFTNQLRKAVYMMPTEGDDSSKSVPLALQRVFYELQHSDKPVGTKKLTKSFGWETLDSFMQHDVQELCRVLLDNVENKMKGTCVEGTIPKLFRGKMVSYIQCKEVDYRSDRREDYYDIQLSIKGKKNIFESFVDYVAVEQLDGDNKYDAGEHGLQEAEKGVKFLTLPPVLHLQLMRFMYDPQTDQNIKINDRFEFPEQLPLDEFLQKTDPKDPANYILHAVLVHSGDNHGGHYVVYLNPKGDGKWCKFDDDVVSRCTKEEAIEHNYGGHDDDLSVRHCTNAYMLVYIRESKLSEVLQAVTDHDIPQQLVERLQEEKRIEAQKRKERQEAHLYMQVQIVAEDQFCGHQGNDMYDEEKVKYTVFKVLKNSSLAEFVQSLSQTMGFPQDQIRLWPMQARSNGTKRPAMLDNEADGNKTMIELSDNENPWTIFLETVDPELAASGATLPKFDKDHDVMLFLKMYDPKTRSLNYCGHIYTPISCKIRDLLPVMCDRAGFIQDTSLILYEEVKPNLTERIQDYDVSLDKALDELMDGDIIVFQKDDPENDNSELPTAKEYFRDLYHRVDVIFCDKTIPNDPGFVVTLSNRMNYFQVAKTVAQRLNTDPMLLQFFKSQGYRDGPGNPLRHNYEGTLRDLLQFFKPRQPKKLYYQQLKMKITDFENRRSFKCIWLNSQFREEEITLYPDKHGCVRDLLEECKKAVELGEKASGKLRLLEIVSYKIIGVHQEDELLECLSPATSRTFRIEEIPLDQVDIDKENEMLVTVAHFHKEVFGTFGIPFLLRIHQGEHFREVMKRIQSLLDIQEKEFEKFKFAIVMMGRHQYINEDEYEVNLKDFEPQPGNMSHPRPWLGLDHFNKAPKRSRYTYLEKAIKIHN
compound,measurement,setting,value
Cc1ncsc1-c1ccc([C@H](C)NC(=O)[C@@H]2C[C@@H](O)CN2C(=O)[C@@H](c2cc(N3CCN(Cc4ccc(-c5c6ncn(CC7(O)CCN(C(=O)C[C@@H](C)c8ccccc8)CC7)c(=O)c6nn5C)cc4)CC3)no2)C(C)C)cc1,Activity,[1],inactive
same,Activity,[2],19.6%
same,Activity,[3],16.98%
same,viability at 0.1 µM,[4],59.7%
same,Emax,[5],93.1%
same,inhibition in vivo at 10 mg/kg,[6],60.8%
same,Activity,[7],12.98%
same,Activity,[8],12.98%
same,Activity,[9],Active
same,Activity,[10],20.73%

# — ChEMBL document CHEMBL5550201, “Discovery of a Highly Potent, Selective and Efficacious USP7 Degrader for the Treatment of Acute Lymphoblastic Leukemia” (J Med Chem, 2024)
